Measured values published in the NIST ThermoML archive (doi:10.1016/j.jct.2012.01.008).

Conditions: Liquid, Vibrating tube method

CCC[N+]1(C)CCCCC1.O=S(=O)([N-]S(=O)(=O)C(F)(F)F)C(F)(F)F
mass density [kg/m3]
Conditions	100 kPa	10000 kPa	15000 kPa	20000 kPa	25000 kPa	30000 kPa	35000 kPa	40000 kPa	45000 kPa	50000 kPa
298.15 K	1408.9	1415.4	1418.7	1421.9	1424.8	1427.7	1430.4	1433.2	1436.1	1438.8
318.15 K	1392.1	1398.9	1402.4	1405.4	1408.6	1411.8	1414.7	1417.6	1420.5	1423.3
348.15 K	1366.3	1373.5	1377.2	1380.8	1384.1	1387.6	1390.7	1393.8	1397	1399.9

CC(=O)c1ccccc1 [acetophenone]
mass density [kg/m3]
Conditions	100 kPa	10000 kPa	15000 kPa	20000 kPa	25000 kPa	30000 kPa	35000 kPa	40000 kPa	45000 kPa	50000 kPa
298.15 K	1023.4	1029	1031.7	1034.3	1036.8	1039.3	1041.8	1044.4	1046.7	1049
318.15 K	1005.9	1012.2	1015.2	1018.1	1020.9	1023.6	1026.4	1028.8	1031.5	1034
348.15 K	979.6	987.1	990.5	993.6	996.9	1000.1	1003.1	1006.1	1009	1011.7

COc1ccccc1 [anisole]
mass density [kg/m3]
Conditions	100 kPa	10000 kPa	15000 kPa	20000 kPa	25000 kPa	30000 kPa	35000 kPa	40000 kPa	45000 kPa	50000 kPa
298.15 K	989.2	995.6	998.5	1001.4	1004.1	1006.9	1009.7	1012.5	1015.2	1017.5
318.15 K	969.9	977.3	980.4	983.6	986.9	989.8	992.9	995.7	998.6	1001.5
348.15 K	941.3	949.8	953.5	957.3	961.1	964.5	967.9	971	974.5	977.8
